In PubChem BioAssay AID179 (DTP/NCI, 2004) one finds EC50, IC50 and outcome data, which are given here for 52 molecules.

Activity calls are given as the source filed them.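 How the source made its calls: active means compounds giving half or more protection of infected cells from virus-caused growth loss, again on retest; inactive means the rest.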 Some results are limits rather than exact numbers.

The term EC50 denotes the concentration at which the effect is half-maximal. One may read the IC50 as the point on the concentration scale where inhibition reaches its midpoint. High values mean weaker potency, low ones greater potency.

The test system of this experiment is CEM cells HIV-1 protection, formazan growth assay. The experiment in a line: NCI AIDS Antiviral Assay. Particulars: for IC50: measured here: growth of uninfected CEM cells. Summed up: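 Steps: treat uninfected and HIV-1-infected human CEM cells at five drug levels; quantify growth by soluble formazan; retest any compound reaching 50% protection; classify actives from the retest.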

Turning to `Cc1ccc2c(c1)SSc1ccc(C)cc1SS2`, the EC50 was greater than 200 µM and the IC50 worked out at 110 µM.
As for `C=CCCC1(CCP(=O)(c2ccccc2)c2ccccc2)OCCO1`, the EC50 is greater than 708 µM and the IC50 is 155 µM.
As for `c1ncc(C23C4C5C6C4C2C6C53)[nH]1` (stereo not drawn), the EC50 is greater than 200 µM and the IC50 worked out at 155 µM.
The corresponding values for `CC(C)CNC(=O)c1c(NC(=O)c2ccccc2)sc2[nH]c(=O)n(-c3ccccc3)c(=O)c12` are greater than 50.1 µM and greater than 50.1 µM.
The corresponding values for `COC(=O)N1CC2CC=CC(C2)c2ccccc21` (stereo not drawn) are greater than 204 µM and greater than 204 µM.
The corresponding values for `CC(CCCOC(c1ccccc1)(c1ccccc1)c1ccccc1)OC(=O)Nc1ccccc1` (stereo not drawn) are greater than 28.8 µM and greater than 28.8 µM.
Regarding `CCOC(=O)c1sc2c(c1O)c(=O)n(-c1ccccc1)c(=S)n2-c1ccccc1`, the EC50 was greater than 17 µM and the IC50 was greater than 17 µM.
With `CC1(C)OCC(/C=C\C(O)CC2(C)OCCO2)CO1` (stereo not drawn), the result was inactive.
Still for that read-out and setting: with `O=C(CN1CCOCC1)Nc1ccc2c(c1)C1Oc3ccccc3CC1CO2` (stereo not drawn) the entry was “inactive”.
Regarding `NCCCC[C@H](NC(=O)[C@H](CS)NC(=O)[C@@H](N)Cc1cnc[nH]1)C(=O)N[C@H](Cc1ccccc1)C(=O)N[C@@H](Cc1c[nH]c2ccccc12)C(=O)N[C@@H](Cc1c[nH]c2ccccc12)C(N)=O`, the EC50 is greater than 200 µM and the IC50 was greater than 200 µM.
`CCOC(=O)C1=C(O)C(=O)c2ccsc2C1=O`: the EC50 was greater than 708 µM and the IC50 came to 120 µM.
The corresponding values for `CC1=N/C(=C\c2ccc(Cl)cc2)C(=O)O1` are greater than 32.4 µM and greater than 32.4 µM.
The corresponding values for `CC(C)(C)N1C(=O)[N+]2(CCCCC2)N=C1[O-]` are greater than 4.47 µM and greater than 4.47 µM.
For `CC1(C)C2CCC1(C)C(NC(=O)COCCOCC(N)=O)C2` (stereo not drawn), in that order: greater than 83.2 µM and 41.7 µM.
Consider `CN(C)CCCn1c(-c2ccc(Br)cc2)csc1=Nc1ccccc1`, for which the EC50 is greater than 200 µM and the IC50 was determined as 9.77 µM.
For `CC(SC(=N)N)C(=N)N` (stereo not drawn), in that order: greater than 200 µM and greater than 200 µM.
Turning to `COc1ccc(C2C(C#N)=C(S)N(C3OC(CO)C(O)C(O)C3O)C(C)=C2C(C)=O)cc1` (stereo not drawn), the EC50 was greater than 200 µM and the IC50 worked out at 89.1 µM.
For `COc1cc2c3c([nH]c2c(OC)c1OC)CCN(Cc1ccccc1)C3`, in that order: greater than 200 µM and 66.1 µM.
As to `COc1ccc(N2C(=O)C3c4[nH]c5ccc(OCc6ccccc6)cc5c4C4CCC(c5ccccc5)CC4C3C2=O)cc1` (stereo not drawn), the EC50 was greater than 100 µM and the IC50 is greater than 100 µM.
Regarding `Nc1ncnc2c1ncn2C1OC(CO)(C(F)(F)F)C(O)C1O` (stereo not drawn), the EC50 was greater than 200 µM and the IC50 was 182 µM.
`COc1ccc(CNc2nc3cc(C(F)(F)F)ccc3nc2C)cc1OC`: the EC50 was greater than 19.1 µM and the IC50 was 14.5 µM.
With `CCN(CC)C(=S)Nc1ccc(-c2cc3ccc(O)cc3oc2=O)cc1`, the EC50 was greater than 200 µM and the IC50 was found to be 14.1 µM.
For `C(=Nc1ccc(SSc2ccc(N=Cc3ccc4c(c3)OCO4)cc2)cc1)c1ccc2c(c1)OCO2`, in that order: greater than 200 µM and 23.4 µM.
The corresponding values for `CC(=O)OCC1OC(Nc2nncs2)C(OC(C)=O)C1OC(C)=O` (stereo not drawn) are greater than 692 µM and 562 µM.
For `COC1Cc2ccccc2C1O` (stereo not drawn), the result was inactive.
For the molecule `O=C1OC(N=P(c2ccccc2)(c2ccccc2)c2ccccc2)C(N=P(c2ccccc2)(c2ccccc2)c2ccccc2)=C1Cl` (stereo not drawn), the EC50 is greater than 20 µM and the IC50 is 18.2 µM.
The corresponding values for `C=CCN1C(=O)CC(=O)N(NC2=NNC3(C(=O)N2)c2ccccc2-c2ccccc23)C1=S` are greater than 200 µM and 79.4 µM.
For `CC#CCCC1(CC)CCCN(C(=O)OC(C)C)C1OCC` (stereo not drawn), in that order: greater than 32.4 µM and greater than 32.4 µM.
For `N#Cc1c(N2CCOCC2)ncn(-c2ccc(Cl)cc2)c1=O`, in that order: greater than 200 µM and greater than 200 µM.
As to `Cc1noc(C)c1C1=CCCCc2ccccc21`, the EC50 was greater than 30.2 µM and the IC50 was greater than 30.2 µM.
For the molecule `COC(=O)CC(=O)OSc1ccccc1`, the EC50 is greater than 251 µM and the IC50 was 18.2 µM.
The corresponding values for `Cc1ccc(Oc2cc(C)ccc2P(=O)(O)O)cc1` are greater than 200 µM and 138 µM.
Take `COc1ccc(NC2=NCCO2)c2ccccc12`: the EC50 is greater than 200 µM and the IC50 turned out to be 46.8 µM.
The corresponding values for `COC/C=C\[C@@]1(O)CCCC[C@@H]1CC(OC)OC` are greater than 200 µM and 1.23 µM.
For `CN(NC(=O)/C(=C\c1ccco1)NC(=O)c1ccccc1)c1cn[nH]c(=O)c1Cl`, in that order: greater than 200 µM and 38.9 µM.
The corresponding values for `Oc1ccc([I+]c2ccccc2)cc1O` are greater than 107 µM and 30.2 µM.
In the case of `CCN(C(=O)N[C@@H](CC(C)C)C(=O)NCC(=O)OC)c1ccccc1`, the EC50 is greater than 200 µM and the IC50 is 110 µM.
The corresponding values for `O=c1c2cncnc2sc2nc3ccccc3n12` are greater than 200 µM and greater than 200 µM.
For `CC(C)C(NC(=O)C(Cc1ccccc1)NC(=O)[C@H]1CCC[C@H]1NC(=O)C(Cc1ccc(OC(C)(C)C)cc1)NC(=O)OC(C)(C)C)C(N)=O` (stereo partly drawn), in that order: greater than 200 µM and 29.5 µM.
Consider `C[N+](C)(C)C1CC([N+](C)(C)C)C2c3ccccc3C21` (stereo not drawn), for which the outcome was inactive.
For the molecule `C=CCOC(=O)CC[N+]1=CCC(c2ccccc2)(c2ccccc2)O1`, the EC50 is greater than 29.5 µM and the IC50 is greater than 29.5 µM.
As to `CNC(=O)Nc1ccncc1`, the EC50 was greater than 200 µM and the IC50 is greater than 200 µM.
Consider `COC(=O)c1nc(-c2ccc(Cl)c(Cl)c2)nc2ccccc12`, for which the result was inactive.
`C/C=C(\C)C(=O)O[C@@H]1CC[C@]2(CO2)C2(COC(C)=O)C(OC(C)=O)CC(C)[C@](C)(C[C@H](O)C3=CC(=O)OC3)[C@@H]12` (stereo partly drawn): the outcome was inactive.
As to `CC(C)(C)c1cc(CCC(=O)Nc2ccc(Cl)cc2)[nH]c(=S)n1`, the EC50 was greater than 513 µM and the half-inhibitory concentration (IC50) is greater than 513 µM.
Consider `COc1ccc(C(OC(=O)[C@H](O[Si](C)(C)C(C)(C)C)[C@@H](NC(=O)c2ccccc2)c2ccccc2)c2ccc(OC)cc2)cc1`, for which the EC50 was greater than 200 µM and the IC50 worked out at 95.5 µM.
Regarding `CCOc1ccc(Nc2nc(C)c(C(=O)/C=C/c3ccc(Cl)cc3Cl)s2)cc1`, the EC50 is greater than 22.9 µM and the IC50 was 20 µM.
The corresponding values for `O=S(=O)(O)OCCOc1ccc(S(=O)(=O)c2ccc(OCCOS(=O)(=O)O)cc2)cc1` are greater than 200 µM and greater than 200 µM.
For `NC(=S)N1N=C2c3ccccc3CC[C@@H]2[C@@H]1c1ccccc1`, in that order: greater than 34.7 µM and 6.03 µM.
The corresponding values for `CCN(CC)c1ccc2cc(C(=O)Nc3nc(C45CC6CC(CC(C6)C4)C5)cs3)c(=O)oc2c1` are greater than 200 µM and greater than 200 µM.
In the case of `N#Cc1c(N2CCOCC2)[nH]c(=O)n(-c2ccccc2)c1=S`, the EC50 was greater than 200 µM and the IC50 is greater than 200 µM.
Regarding `CC(C)(C)C1CCC(N=C(N)CSS(=O)(=O)O)CC1` (stereo not drawn), the EC50 was greater than 200 µM and the IC50 was 24 µM.
